# Measured values reported in patent US20210255193A1, “LYSINE REACTIVE PROBES AND USES THEREOF” (The Scripps Research Institute, priority 2017, published 2021).
# Key:
# Experiment in all cases: competitive isoTOP-ABPP
# [1] = biological target: T1, MAP1LC3B Microtubule-associated proteins 1A/1B light chain (Homo sapiens, UniProt Q9GZQ8); assay type: binding; conditions: for isoTOP-ABPP ratio (R) at liganded lysine Q9GZQ8_K51: 50 uM, in vitro, sol, 231
# T1 construct: isoTOP-ABPP experiments performed in cell lysates (in vitro); endogenous in cells; host or cells: soluble proteome of human cancer cell lines (MDA-MB-231; Ramos and Jurkat also prepared)
# Outline: (§1)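 Competition format: fragment (50 μM activated ester, 100 μM guanidinylating agent) versus vehicle in lysate, then lysine probe STP-alkyne at 0.1 mM for 1 h. Quantitation by light/heavy TEV-tag MS1 peak areas, reported as R.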
# [2] = biological target: T2, ABHD10 Abhydrolase domain-containing protein 10, mitochondrial (Homo sapiens, UniProt Q9NUJ1); assay type: binding; conditions: for isoTOP-ABPP ratio (R) at liganded lysine Q9NUJ1_K185: 50 uM, in vitro, sol, 231
# T2 construct: endogenous in cells; host or cells: MDA-MB-231 lysate
# T2 sequence (Q9NUJ1 53-306): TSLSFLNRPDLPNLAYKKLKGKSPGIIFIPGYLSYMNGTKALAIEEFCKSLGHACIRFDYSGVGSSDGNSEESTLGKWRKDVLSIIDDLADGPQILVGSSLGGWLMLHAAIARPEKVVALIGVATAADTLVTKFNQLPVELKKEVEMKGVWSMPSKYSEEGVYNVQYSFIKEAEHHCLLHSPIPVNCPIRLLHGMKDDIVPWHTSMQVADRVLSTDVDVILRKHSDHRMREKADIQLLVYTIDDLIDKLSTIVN
# Outline: as §1
# [3] = biological target: T3, HDHD3 Haloacid dehalogenase-like hydrolase domain-containing protein 3 (Homo sapiens, UniProt Q9BSH5); assay type: binding; conditions: for isoTOP-ABPP ratio (R) at liganded lysine Q9BSH5_K15: 50 uM, in vitro, sol, 231
# T3 construct: isoTOP-ABPP experiments performed in cell lysates (in vitro); endogenous in cells; host or cells: soluble proteome of human cancer cell lines (MDA-MB-231; Ramos and Jurkat also prepared)
# T3 sequence (Q9BSH5 1-251): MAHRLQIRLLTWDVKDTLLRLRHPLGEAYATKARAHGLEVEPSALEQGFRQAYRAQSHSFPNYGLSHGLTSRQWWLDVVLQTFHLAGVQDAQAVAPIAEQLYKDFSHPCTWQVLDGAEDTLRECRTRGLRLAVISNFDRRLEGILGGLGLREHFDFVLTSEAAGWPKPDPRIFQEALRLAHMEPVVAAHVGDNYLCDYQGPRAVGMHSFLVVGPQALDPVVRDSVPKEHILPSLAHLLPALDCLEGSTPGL
# Outline: as §1
# [4] = biological target: T4, GLUD1 Glutamate dehydrogenase 1, mitochondrial (Homo sapiens, UniProt P00367); assay type: binding; conditions: for isoTOP-ABPP ratio (R) at liganded lysine P00367_K480: 50 uM, in vitro, sol, 231; for isoTOP-ABPP ratio, lysine P00367_K480: possible other lysine P00367_K477
# T4 construct: isoTOP-ABPP experiments performed in cell lysates (in vitro); endogenous in cells; host or cells: MDA-MB-231 soluble lysate
# Outline: as §1
# [5] = biological target: T5, KPNA2 Importin subunit alpha-2 (Homo sapiens, UniProt P52292); assay type: binding; conditions: for isoTOP-ABPP ratio (R) at liganded lysine P52292_K459: 50 uM, in vitro, sol, 231
# T5 construct: isoTOP-ABPP experiments performed in cell lysates (in vitro); endogenous in cells; host or cells: soluble proteome of human cancer cell lines (MDA-MB-231, Ramos, Jurkat)
# Outline: as §1
# [6] = biological target: T6, ABCE1 ATP-binding cassette sub-family E member 1 (Homo sapiens, UniProt P61221); conditions: for isoTOP-ABPP ratio (R) at liganded lysine P61221_K191 / isoTOP-ABPP ratio (R) at liganded lysine P61221_K478: 50 uM, in vitro, sol, 231
# T6 construct: isoTOP-ABPP experiments performed in cell lysates (in vitro); endogenous in cells; host or cells: soluble proteome of human cancer cell lines (MDA-MB-231, Ramos, Jurkat)
# Outline: as §1
# [7] = biological target: T7, SRP54 Signal recognition particle 54 kDa protein (Homo sapiens, UniProt P61011); assay type: binding; conditions: for isoTOP-ABPP ratio (R) at liganded lysine P61011_K81: 50 uM, in vitro, sol, 231
# T7 construct: isoTOP-ABPP experiments performed in cell lysates (in vitro); endogenous in cells; host or cells: soluble proteome of human cancer cell lines (MDA-MB-231, Ramos, Jurkat)
# Outline: as §1
# T7 sequence (P61011 whole entry): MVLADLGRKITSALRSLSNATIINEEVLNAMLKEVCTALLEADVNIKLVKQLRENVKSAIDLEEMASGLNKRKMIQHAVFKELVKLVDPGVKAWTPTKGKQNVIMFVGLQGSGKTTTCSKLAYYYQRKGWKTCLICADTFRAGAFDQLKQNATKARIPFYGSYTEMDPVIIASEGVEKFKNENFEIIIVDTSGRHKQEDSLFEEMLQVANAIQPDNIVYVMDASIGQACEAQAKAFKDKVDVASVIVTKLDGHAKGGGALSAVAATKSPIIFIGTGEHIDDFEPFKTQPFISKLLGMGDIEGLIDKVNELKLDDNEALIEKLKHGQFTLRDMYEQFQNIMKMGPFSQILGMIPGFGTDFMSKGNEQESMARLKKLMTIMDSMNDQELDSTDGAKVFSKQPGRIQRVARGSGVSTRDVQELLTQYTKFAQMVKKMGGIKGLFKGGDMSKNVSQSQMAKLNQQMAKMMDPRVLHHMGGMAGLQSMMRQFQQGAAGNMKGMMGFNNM
# T4 sequence (P00367 54-558): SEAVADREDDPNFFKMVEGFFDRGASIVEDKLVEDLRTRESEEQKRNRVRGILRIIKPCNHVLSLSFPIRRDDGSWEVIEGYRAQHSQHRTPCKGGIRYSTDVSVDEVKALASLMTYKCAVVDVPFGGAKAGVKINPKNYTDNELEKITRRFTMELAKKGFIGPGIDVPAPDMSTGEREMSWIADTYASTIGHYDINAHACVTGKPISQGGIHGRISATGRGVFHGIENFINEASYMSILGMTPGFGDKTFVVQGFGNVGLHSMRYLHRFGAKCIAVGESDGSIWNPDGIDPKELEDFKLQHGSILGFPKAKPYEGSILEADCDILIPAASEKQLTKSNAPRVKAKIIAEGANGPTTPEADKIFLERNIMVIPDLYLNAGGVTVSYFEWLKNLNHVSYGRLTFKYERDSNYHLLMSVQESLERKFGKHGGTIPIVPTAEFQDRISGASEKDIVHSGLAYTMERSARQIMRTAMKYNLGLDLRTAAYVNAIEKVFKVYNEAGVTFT
Structure (SMILES),isoTOP-ABPP ratio (R) at liganded lysine Q9GZQ8_K51 [1],isoTOP-ABPP ratio (R) at liganded lysine Q9NUJ1_K185 [2],isoTOP-ABPP ratio (R) at liganded lysine Q9BSH5_K15 [3],isoTOP-ABPP ratio (R) at liganded lysine P00367_K480 [4],isoTOP-ABPP ratio (R) at liganded lysine P52292_K459 [5],isoTOP-ABPP ratio (R) at liganded lysine P61221_K191 [6],isoTOP-ABPP ratio (R) at liganded lysine P61221_K478 [6],isoTOP-ABPP ratio (R) at liganded lysine P61011_K81 [7],"isoTOP-ABPP ratio, lysine Q9GZQ8_K51 ([1]; 50 uM_231_sol_in vitro)","isoTOP-ABPP ratio, lysine Q9NUJ1_K185 ([2]; 50 uM_231_sol_in vitro)","isoTOP-ABPP ratio, lysine Q9BSH5_K15 ([3]; 50 uM_231_sol_in vitro)","isoTOP-ABPP ratio, lysine P00367_K480 ([4]; 50 uM_231_sol_in vitro)","isoTOP-ABPP ratio, lysine P52292_K459 ([5]; 50 uM_231_sol_in vitro)","isoTOP-ABPP ratio, lysine P61221_K191 ([6]; 50 uM_231_sol_in vitro)","isoTOP-ABPP ratio, lysine P61221_K478 ([6]; 50 uM_231_sol_in vitro)","isoTOP-ABPP ratio, lysine P61011_K81 ([7]; 50 uM_231_sol_in vitro)",further results
"O=C(Oc1ccc([N+](=O)[O-])cc1[N+](=O)[O-])c1ccc(Oc2ccccc2)cc1 [fragment 39, 2,4-Dinitrophenyl 4-phenoxybenzoate]",0.9,1.0,1.3,1.0,1.0,0.8,1.0,0.9,,,,,,,,,
"CC(C)(C)OC(=O)NCCCC(=O)Oc1ccc([N+](=O)[O-])cc1[N+](=O)[O-] [fragment 41, 2,4-Dinitrophenyl 4-((tert-butoxycarbonyl)amino)butanoate]",0.9,3.3,2.8,3.7,2.3,1.2,1.3,1.0,,,,,,,,,
"O=C(Oc1ccc([N+](=O)[O-])cc1[N+](=O)[O-])C(c1ccccc1)(c1ccccc1)c1ccccc1 [fragment 42, 2,4-Dinitrophenyl 2,2,2-triphenylacetate]",0.9,1.0,0.9,1.1,0.9,1.0,1.1,0.9,,,,,,,,,
"N#Cc1ccc(C(=O)Oc2ccc([N+](=O)[O-])cc2[N+](=O)[O-])cc1 [fragment 44, 2,4-Dinitrophenyl 4-cyanobenzoate]",,,,,,,,,0.9,1.2,20.0,1.2,1.6,1.1,0.9,1.0,
"O=C(CCc1ccc2c(c1)OCO2)Oc1ccc([N+](=O)[O-])cc1[N+](=O)[O-] [fragment 45, 2,4-Dinitrophenyl 3-(benzo[d][1,3]dioxol-5-yl)propanoate]",,,,,,,,,1.0,1.2,3.4,2.8,1.7,1.1,1.5,1.0,
"O=C(Oc1c(F)c(F)c(C(F)(F)F)c(F)c1F)c1cc(C(F)(F)F)cc(C(F)(F)F)c1 [fragment 47, 2,3,5,6-Tetrafluoro-4-(trifluoromethyl)phenyl 3,5-bis(trifluoromethyl)benzoate]",,,,,,,,,0.9,1.8,0.9,2.0,1.2,1.7,1.4,0.9,
"O=C(Oc1c(F)c(F)cc(F)c1F)c1cc(C(F)(F)F)cc(C(F)(F)F)c1 [fragment 48, 2,3,5,6-Tetrafluorophenyl 3,5-bis(trifluoromethyl)benzoate]",,,,,,,,,0.8,2.7,1.0,1.5,1.1,1.0,1.1,1.1,
"COC(=O)NC(=NC(=O)OCC1c2ccccc2-c2ccccc21)n1cccn1 [fragment 49, N-Methoxycarbonyl-N′-9-fluorenylmethoxycarbonyl-pyrazole-1-carboxamidine]",,,,,,,,,,,,,,,,,"isoTOP-ABPP ratio, lysine Q9GZQ8_K51 ([1]; 100 uM_231_sol_in vitro): 1.6; isoTOP-ABPP ratio, lysine Q9NUJ1_K185 ([2]; 100 uM_231_sol_in vitro): 1.5; isoTOP-ABPP ratio, lysine Q9BSH5_K15 ([3]; 100 uM_231_sol_in vitro): 3.5; isoTOP-ABPP ratio, lysine P00367_K480 ([4]; 100 uM_231_sol_in vitro): 2.0; isoTOP-ABPP ratio, lysine P52292_K459 ([5]; 100 uM_231_sol_in vitro): 1.1; isoTOP-ABPP ratio, lysine P61221_K191 ([6]; 100 uM_231_sol_in vitro): 20.0; isoTOP-ABPP ratio, lysine P61221_K478 ([6]; 100 uM_231_sol_in vitro): 1.0; isoTOP-ABPP ratio, lysine P61011_K81 ([7]; 100 uM_231_sol_in vitro): 1.0"
